Laboratory results: US7015228B2, “4-amino-2-(2-pyridyl)pyrimidines as microbicidal active substances” (Ciba Specialty Chemicals Corporation, priority 2001, dated 2006)
Converted amounts (≈) assume the structure as drawn.

What was measured:
Format in all cases: cell-based
[1] = system: Escherichia coli NCTC 8196; test: Minimum inhibitory concentration (MIC) in microtitre plates; details: for Minimum inhibitory concentration (MIC) E. coli NCTC 8196: Table 8, * = significant inhibition of growth, but not complete inhibition
Procedure: (§1) Determination of the Minimum Inhibitory Concentration (MIC Value) in Microtitre Plates
(§2) Casein-soybean flour-peptone broth for preparation of pre-cultures of test bacteria and yeast.
(§3) Mycological slant agar for the pre-culture of moulds
(§4) Examples of Test Organisms:
(§5) The test substances are pre-dissolved in dimethyl sulfoxide (DMSO) and tested in a dilution series of 1:2.
(§6) Bacteria and yeast are cultured overnight in CASO broth, the mould is cultured overnight on mycological slant agar, and washed off using 10 ml of 0.85% sodium chloride solution (+0.1% Triton X-100).
(§7) All the test organisms are adjusted to an organism count of 1–5×10^6 CFU/ml using 0.85% sodium chloride solution.
(§8) The test substances are pre-pipetted into microtitre plates in amounts of 8 μl per well.
(§9) Pre-diluted organism suspensions are diluted 1:100 in CASO broth (bacteria and yeast) or Sabouraud 2% glucose broth (mould) and are added in amounts of 192 μl per well to the test substances.
(§10) The test batches are incubated for 48 hours at 37° C. (bacteria and yeast) or for 5 days at 28° C. (mould).
(§11) After incubation, the growth is determined on the basis of the turbidity of the test batches (optical density) at 620 nm in a microplate reader.
(§12) The minimum inhibitory concentration (MIC value) is the concentration of substance at which there is found (compared to the growth of the control) an appreciable inhibition of growth (≦20% growth) of the test organisms.
(§13) One microtitre plate is used for each test organism and substance concentration. All the substances are tested in duplicate.

[2] = system: Staphylococcus hominis DMS 20328; test: as above; details: Table 7, 48 hours at 37° C., MIC = ≦20% growth compared to control
Procedure: as §1, §2, §3, §4, §5, §6, §7, §8, §9, §10, §11, §12, §13

[3] = system: S. epidermidis ATCC 12228; test: Minimum inhibitory concentration (MIC), further microorganisms; details: Table 8; * = significant inhibition of growth, but not complete inhibition
Procedure: as §1, §2, §3, §5, §6, §7, §8, §9, §10, §11, §12, §13

[4] = system: Trichophyton mentagrophytes ATCC 9533; test: as above; details: Table 8; * = significant inhibition of growth, but not complete inhibition
Procedure: as §1, §2, §3, §5, §6, §7, §8, §9, §10, §11, §12, §13

[5] = system: Epidermophyton floccosum DSM 10709; test: as above; details: Table 8; * = significant inhibition of growth, but not complete inhibition
Procedure: as §1, §2, §3, §5, §6, §7, §8, §9, §10, §11, §12, §13

[6] = system: Enterococcus hirae ATCC 10541; test: as above; details: Table 8; * = significant inhibition of growth, but not complete inhibition
Procedure: as §1, §2, §3, §5, §6, §7, §8, §9, §10, §11, §12, §13

[7] = system: Micrococcus luteus ATCC 9341; test: as above; details: Table 8; * = significant inhibition of growth, but not complete inhibition
Procedure: as §1, §2, §3, §5, §6, §7, §8, §9, §10, §11, §12, §13

[8] = system: Staphylococcus aureus ATCC 9144; test: as above; details: Table 8; * = significant inhibition of growth, but not complete inhibition
Procedure: as §1, §2, §3, §5, §6, §7, §8, §9, §10, §11, §12, §13

[9] = Table 7, 48 hours at 37° C., MIC = ≦20% growth compared to control

Row | SMILES | Minimum inhibitory concentration (MIC) E. coli [1, 9] | Minimum inhibitory concentration (MIC) S. hominis [2] | also measured
1 | CCc1c(C)nc(-c2ccccn2)nc1NCCCCCCCN [compound 4] | >120 µg/mL | >120 µg/mL | –
2 | CCc1c(C)nc(-c2ccccn2)nc1NCCCCCCCCN [compound 5] | >120 µg/mL | >120 µg/mL | –
3 | CCCCCCCCNc1nc(-c2ccccn2)nc(C)c1CC [compound 9] | >120 µg/mL | 7.5 µg/mL (≈ 23 µM) | Minimum inhibitory concentration (MIC) S. epidermidis ATCC 12228 [3]: *15 μg/mL; Minimum inhibitory concentration (MIC) Trichophyton mentagrophytes ATCC 9533 [4]: *30 μg/mL; Minimum inhibitory concentration (MIC) Epidermophyton floccosum DSM 10709 [5]: *15 μg/mL; Minimum inhibitory concentration (MIC) Enterococcus hirae ATCC 10541 [6]: 30 µg/mL (≈ 91.9 µM); Minimum inhibitory concentration (MIC) Micrococcus luteus ATCC 9341 [7]: 3.75 µg/mL (≈ 11.5 µM); Minimum inhibitory concentration (MIC) Staphylococcus aureus ATCC 9144 [8]: 15 µg/mL (≈ 45.9 µM); Minimum inhibitory concentration (MIC) E. coli NCTC 8196 [1]: >60 µg/mL
4 | CCCCCCCCCNc1nc(-c2ccccn2)nc(C)c1CC [compound 10] | >80 µg/mL | 5 µg/mL (≈ 14.7 µM) | Minimum inhibitory concentration (MIC) S. epidermidis ATCC 12228 [3]: 15 µg/mL (≈ 44.1 µM); Minimum inhibitory concentration (MIC) Trichophyton mentagrophytes ATCC 9533 [4]: 60 µg/mL (≈ 176 µM); Minimum inhibitory concentration (MIC) Epidermophyton floccosum DSM 10709 [5]: 60 µg/mL (≈ 176 µM); Minimum inhibitory concentration (MIC) Enterococcus hirae ATCC 10541 [6]: 30 µg/mL (≈ 88.1 µM); Minimum inhibitory concentration (MIC) Micrococcus luteus ATCC 9341 [7]: <0.5 µg/mL; Minimum inhibitory concentration (MIC) Staphylococcus aureus ATCC 9144 [8]: 15 µg/mL (≈ 44.1 µM); Minimum inhibitory concentration (MIC) E. coli NCTC 8196 [1]: >60 µg/mL
5 | CCCCCCCCCCCCCCCCNc1nc(-c2ccccn2)nc(C)c1CC [compound 13] | >120 µg/mL | 120 µg/mL (≈ 274 µM) | –
6 | Cc1cc(NCCCCCCCN)nc(-c2ccccn2)n1 [compound 16] | >120 µg/mL | >120 µg/mL | –
7 | Cc1cc(NCCCCCCCCN)nc(-c2ccccn2)n1 [compound 17] | >80 µg/mL | >80 µg/mL | –
8 | CCCCCCCNc1cc(C)nc(-c2ccccn2)n1 [compound 20] | 120 µg/mL (≈ 422 µM) | 7.5 µg/mL (≈ 26.4 µM) | –
9 | CCCCCCCCCCCCCCCCNc1cc(C)nc(-c2ccccn2)n1 [compound 25] | >120 µg/mL | 15 µg/mL (≈ 36.5 µM) | –
10 | NCCCCCCCNc1cc(C(F)(F)F)nc(-c2ccccn2)n1 [compound 28] | >80 µg/mL | >80 µg/mL | –
11 | NCCCCCCCCNc1cc(C(F)(F)F)nc(-c2ccccn2)n1 [compound 29] | >80 µg/mL | >80 µg/mL | –
12 | NCCCCCCCCCCCCNc1cc(C(F)(F)F)nc(-c2ccccn2)n1 [compound 31] | 20 µg/mL (≈ 47.2 µM) | 5 µg/mL (≈ 11.8 µM) | –
13 | CCCCCCCCCCCCNc1cc(C(F)(F)F)nc(-c2ccccn2)n1 [compound 36] | – | – | MIC ([1]; Escherichia coli, NCTC8196, Table 7, 48 hours at 37° C., MIC = ≦20% growth compared to control, read-out: Minimum inhibitory concentration (MIC) E. coli): > 120 µg/mL; MIC ([2]; Staphylococcus hominis, DMS20328, read-out: Minimum inhibitory concentration (MIC) S. hominis): 60 µg/mL (≈ 147 µM)
14 | FC(F)(F)c1cc(NC2CCCCC2)nc(-c2ccccn2)n1 [compound 38] | >120 µg/mL | 60 µg/mL (≈ 186 µM) | –
15 | FC(F)(F)c1cc(NCCc2ccccc2)nc(-c2ccccn2)n1 [compound 39] | >120 µg/mL | 30 µg/mL (≈ 87.1 µM) | –
16 | CC(C)c1cc(NCCCCCCCN)nc(-c2ccccn2)n1 [compound 40] | >120 µg/mL | 120 µg/mL (≈ 366 µM) | –
17 | CC(C)c1cc(NCCCCCCCCN)nc(-c2ccccn2)n1 [compound 41] | >120 µg/mL | 120 µg/mL (≈ 351 µM) | –
18 | CCCCCCCCCCCCCCCCNc1cc(C(C)C)nc(-c2ccccn2)n1 [compound 49] | >120 µg/mL | >120 µg/mL | –
19 | CC(C)c1cc(NC2CCCCC2)nc(-c2ccccn2)n1 [compound 50] | >120 µg/mL | 15 µg/mL (≈ 50.6 µM) | –
20 | CC(C)c1cc(NCCc2ccccc2)nc(-c2ccccn2)n1 [compound 51] | >120 µg/mL | 30 µg/mL (≈ 94.2 µM) | –

The next lines start with results.

Row | Minimum inhibitory concentration (MIC) E. coli [1, 9] | Minimum inhibitory concentration (MIC) S. hominis [2] | SMILES | also measured
21 | >80 µg/mL | 80 µg/mL (≈ 225 µM) | CC(C)(C)c1cc(NCCCCCCCCN)nc(-c2ccccn2)n1 [compound 53] | –
22 | 60 µg/mL (≈ 146 µM) | 7.5 µg/mL (≈ 18.2 µM) | CC(C)(C)c1cc(NCCCCCCCCCCCCN)nc(-c2ccccn2)n1 [compound 55] | –
23 | >120 µg/mL | >120 µg/mL | CCCCCCCCCCCCCCCCNc1cc(C(C)(C)C)nc(-c2ccccn2)n1 [compound 61] | –
24 | >120 µg/mL | 30 µg/mL (≈ 87.8 µM) | Cc1nc(-c2ccccn2)nc(NCCCCCCCN)c1C(C)C [compound 64] | –
25 | 20 µg/mL (≈ 48.6 µM) | 5 µg/mL (≈ 12.1 µM) | Cc1nc(-c2ccccn2)nc(NCCCCCCCCCCCCN)c1C(C)C [compound 67] | –
26 | >120 µg/mL | 15 µg/mL (≈ 37.8 µM) | CCCCCCCCCCCCNc1nc(-c2ccccn2)nc(C)c1C(C)C [compound 72] | –
27 | >120 µg/mL | 120 µg/mL (≈ 265 µM) | CCCCCCCCCCCCCCCCNc1nc(-c2ccccn2)nc(C)c1C(C)C [compound 73] | –
28 | >120 µg/mL | 60 µg/mL (≈ 193 µM) | Cc1nc(-c2ccccn2)nc(NC2CCCCC2)c1C(C)C [compound 74] | –
29 | >120 µg/mL | 30 µg/mL (≈ 90.2 µM) | Cc1nc(-c2ccccn2)nc(NCCc2ccccc2)c1C(C)C [compound 75] | –
30 | >80 µg/mL | 40 µg/mL (≈ 116 µM) | COCCc1cc(NCCCCCCCN)nc(-c2ccccn2)n1 [compound 76] | –
31 | >120 µg/mL | 30 µg/mL (≈ 91.3 µM) | CCCCCCCNc1cc(CCOC)nc(-c2ccccn2)n1 [compound 80] | –
32 | >120 µg/mL | 15 µg/mL (≈ 43.8 µM) | CCCCCCCCNc1cc(CCOC)nc(-c2ccccn2)n1 [compound 81] | –
33 | 120 µg/mL (≈ 337 µM) | 7.5 µg/mL (≈ 21 µM) | CCCCCCCCCNc1cc(CCOC)nc(-c2ccccn2)n1 [compound 82] | –
34 | 120 µg/mL (≈ 301 µM) | 15 µg/mL (≈ 37.6 µM) | CCCCCCCCCCCCNc1cc(CCOC)nc(-c2ccccn2)n1 [compound 84] | –
35 | 120 µg/mL (≈ 264 µM) | 120 µg/mL (≈ 264 µM) | CCCCCCCCCCCCCCCCNc1cc(CCOC)nc(-c2ccccn2)n1 [compound 85] | –
36 | >120 µg/mL | 120 µg/mL (≈ 384 µM) | COCCc1cc(NC2CCCCC2)nc(-c2ccccn2)n1 [compound 86] | –
37 | 120 µg/mL (≈ 359 µM) | 30 µg/mL (≈ 89.7 µM) | COCCc1cc(NCCc2ccccc2)nc(-c2ccccn2)n1 [compound 87] | –
38 | 120 µg/mL (≈ 394 µM) | 120 µg/mL (≈ 394 µM) | CCc1c(C)nc(-c2ccccn2)nc1NCc1ccccc1 [compound 88] | –
39 | >120 µg/mL | 30 µg/mL (≈ 109 µM) | Cc1cc(NCc2ccccc2)nc(-c2ccccn2)n1 [compound 91] | –
40 | >120 µg/mL | >120 µg/mL | FC(F)(F)c1cc(NCc2ccccc2)nc(-c2ccccn2)n1 [compound 94] | –
41 | >120 µg/mL | 120 µg/mL (≈ 304 µM) | CCCCCCCCCCCNc1cc(C(F)(F)F)nc(-c2ccccn2)n1 [compound 95] | –
42 | 120 µg/mL (≈ 266 µM) | 120 µg/mL (≈ 266 µM) | CCCCCCCCCCCCCCCNc1cc(C(F)(F)F)nc(-c2ccccn2)n1 [compound 96] | –
43 | 120 µg/mL (≈ 394 µM) | 15 µg/mL (≈ 49.3 µM) | CC(C)c1cc(NCc2ccccc2)nc(-c2ccccn2)n1 [compound 97] | –
